Measurements from patent US6372212B1, “Chitinase materials and methods” (ICOS Corporation, priority 1996, dated 2002).
≈ marks a conversion by molar mass, not a printed value. Where two headings read alike, the source gives them in different places.

Legend:
[1] = system: Candida albicans (ATCC no. 90028); experiment: Broth assay; assay type: cell-based; conditions: for IC50: lowest concentration inhibiting growth by at least 50%
Protocol: (§1) In additional experiments, the anti-fungal activity of recombinant human chitinase (produced in COS cells as described in Example 5A) was evaluated in an agar diffusion assay, in a broth assay according to National Committee on Clinical Laboratory Standards, and in a cell wall inhibition assay according to Selitrennikoff, Antimicrob. Agents Chemother., 23:757-765 (1983).
(§2) In the broth assay, 50 μg/ml of the sample (A: recombinant human chitinase, B: buffer control, C: control protein, D: a bacterial lysate with chitinase activity, or a known anti-fungal agent) was added with a certain concentration of the test fungal organism to RPMI 1640 media buffered with MOPS, pH 7.0. The samples were incubated at 35° C., with shaking at 120 rpm, for 48 hours, and then growth was evaluated by measuring the turbidity of the suspension. The approximate concentrations of the test fungi were as follows: 2.5×10^4 cells/ml of Candida albicans (ATCC no. 90028); 5×10^4 cells/ml of Candida albicans-polyene resistant (ATCC no. 38247); 1 x 10^4 cells/ml of Aspergillus fumigatus (ATCC no. 16424); 1×10^4 cells/ml of Neurospora crassa (ATCC no. 18889); and 1×10^4 cells/ml of Saccharomyces cerevisiae (ATCC no. 26108).

[2] = system: Candida albicans-polyene resistant (ATCC no. 38247); experiment: Broth assay; assay type: cell-based; conditions: for IC50: Candida, ATCC38247, lowest concentration inhibiting growth by at least 50%
Protocol: as §1, §2

[3] = system: Aspergillus fumigatus (ATCC no. 16424); experiment: Broth assay; assay type: cell-based
Protocol: as §1, §2

[4] = system: Neurospora crassa (ATCC no. 18889); experiment: Broth assay; assay type: cell-based; set-up: key to Neurospora crassa Growth: 0: No fungal growth; 1: growth is 25% of control; 2: growth is 50% of control; 3: growth is 75% of control; 4: growth equivalent to control; 5: growth is greater than control; conditions: for IC50: Neurospora crassa, ATCC18889, lowest concentration inhibiting growth by at least 50%
Protocol: as §1, §2

[5] = system: Saccharomyces cerevisiae (ATCC no. 26108); experiment: Broth assay; assay type: cell-based; set-up: key to IC50: 0: No fungal growth; 1: growth is 25% of control; 2: growth is 50% of control; 3: growth is 75% of control; 4: growth equivalent to control; 5: growth is greater than control; conditions: for IC50: lowest concentration inhibiting growth by at least 50%
Protocol: as §1, §2

[6] = system: os-1 cell, mutant strain of Neurospora crassa (protoplasts); experiment: os-1 whole cell assay (fungal cell wall biosynthesis inhibition); assay type: cell-based; set-up: key to Cell Wall Regenertion: +: Normal cell-wall regeneration; −: Inhibited cell-wall regeneration; key to Cell Growth: +: Normal growth, no inhibition of growth observed; −: Inhibited fungal growth, zone of inhibition is observed; conditions: 25° C., 72 hours
[7] = Chitotriosidase (chitinase) catalytic activity, fluorogenic substrate; assay type: biochemical
Protocol: Chitotriosidase (chitinase) activity was measured using the fluorogenic substrate 4-methylumbelliferyl-β-D-N,N′,N″-triacetylchitotriose (4 MU-chitotrioside, Sigma Chemical, St. Louis, Mo.) in McIlvain buffer (Hollak et al., supra). Ten μl samples of the recombinant product were combined with 10 itl bovine serum albumin (10 mg/ml), 15 μl fluorogenic substrate (2.71 mM), and 65 μl buffer (0.1M citric acid, 0.2M sodium phosphate, pH 5.2) in a total volume of 100 μl. Reactions were incubated at 37° C. for 15 minutes, then the reaction was stopped with the addition of 2 ml of 0.3M glycine/NaOH buffer (pH 10.6). The fluorescent cleavage product, 4-methylumbelliferone, was monitored with a fluorimeter (SLM-AMINCO Instruments, Inc., Rochester, N.Y.) at 450 nm. […] The known quantity of 4-MU was then correlated to the fluorescence signal from the fluorimeter and linear regression was used to determine a standard curve. The signal produced with diluted purified recombinant chitinase in the assay was then used to interpolate the nm quantity of substrate cleaved by the enzyme during the reaction time. This number was then divided by the concentration of protein to obtain the nm/min per mg protein (determined by A280 and calculated molar extinction coefficient).

[8] = system: Candida albicans (ATCC no. 90028); experiment: Agar diffusion assay; assay type: cell-based; set-up: key: +: Normal growth, no inhibition of growth observed; −: Inhibited fungal growth, zone of inhibition is observed
Protocol: as §1
In the agar diffusion assay, approximately 1×10^6 cells/ml of Candida albicans (ATCC no. 90028) inoculated into 1.5% agar (RPMI 1640 media buffered with […] (MOPS), pH 7.0. A disk containing 50 μg of the sample (A: recombinant human chitinase, B: buffer control, C: control protein, D: a bacterial lysate with chitinase activity, or a known anti-fungal agent) was placed on the agar, and the zone of growth inhibition was measured. Results are shown in Table 1 below.

Aspergillus fumigatus = experiment: Agar diffusion assay; assay type: cell-based; set-up: key: +: Normal growth, no inhibition of growth observed; −: Inhibited fungal growth, zone of inhibition is observed
Candida albicans = experiment: Preliminary in vitro fungal growth inhibition (turbidity of cultures); assay type: cell-based; conditions: 0, 2.8, 11.25, or 45 μg/ml; 24 hours; 10,000-50,000 CFU per ml
Protocol: (§3) In a preliminary experiment, recombinant human chitinase was tested for inhibition of fungal growth in vitro. The two fungi Candida albicans and Aspergillus fumigatis are serious pathogens for immunocompromised patients. Both Candida and Aspergillus were grown in RPMI growth media at 37° C. to approximately 10,000-50,000 colony forming units (CFU) per ml. Recombinant human chitinase (produced in COS cells as described in Example 5A) was added to cultures at 0, 2.8, 11.25, or 45 μg/ml. After 24 hours, fungal growth was assessed by turbidity of cultures. […] The concentration of fungi tested, however, is much higher than the fungal burden seen during fungal infection in vivo. Different results may be obtained under different conditions, e.g., with a lower fungal burden, or when human chitinase is tested in combination with other anti-fungal agents.

Aspergillus fumigatis = experiment: as above; assay type: cell-based; conditions: 0, 2.8, 11.25, or 45 μg/ml; 24 hours; 10,000-50,000 CFU per ml
Protocol: as §3

test fungal organism = experiment: Broth assay, overall conclusion; assay type: cell-based
Protocol: as §2

[9] = system: os-1 cell, mutant strain of Neurospora crassa (protoplasts); experiment: os-1 whole cell assay (fungal cell wall biosynthesis inhibition); assay type: cell-based; set-up: key to Cell Wall Regenertion: +: Normal cell-wall regeneration; −: Inhibited cell-wall regeneration; key to Cell Growth: +: Normal growth, no inhibition of growth observed; −: Inhibited fungal growth, zone of inhibition is observed
Protocol: as §1
The os-1 whole cell assay, which identifies inhibitors of fungal cell wall biosynthesis, was conducted essentially according to Selitrennikoff, supra, using an inoculum of 1.5×10^5 protoplasts/ml embedded in agar (Vogel's Medium N, 7.5% sorbitol, 1.5 % sucrose, 10 μg/ml nicotiniamide and 1 % agar) incubated at 25° C. for 72 hours. The cultures were monitored for changes in growth and morphology after disks containing 50 μg of the sample (A: recombinant human chitinase, B: buffer control, C: control protein, D: a bacterial lysate with chitinase activity, or a known anti-fungal agent) were placed on the agar medium. The os-1 cell is a mutant strain of Neurospora crassa that grows as protoplasts without cell walls when incubated under certain conditions at 37° C., but regenerates a cell wall under the appropriate conditions when the temperature is shifted to about 22° C.

[10] = set-up: species or system Female Balb/c mice; conditions: mouse, in vivo, iv
Protocol: The pharmacokinetics of recombinant human chitinase in mice were determined as follows. Female Balb/c mice, 6-8 weeks old, were injected intravenously in the tail vein with 0.5 mg/kg, 5.0 mg/kg and 50 mg/kg recombinant human chitinase. For each dose, mice were terminally bled at 0.01, 0.25, 1, 8 and 24 hours after injection (2 animals were used per time point per dosage). Serum samples were then assayed for chitinase activity and concentration.

[11] = lowest concentration inhibiting growth by at least 90%
[12] = 50 μg/ml, 35° C., 48 hours, turbidity score

Nc1nc(=O)[nH]cc1F [5-fluorocytosine]
IC50 [1]: 2 μg/ml (growth is 50% of control)
IC50 [2]: 0.06 µg/mL (≈ 0.465 µM)
IC50 ([3]; Aspergillus fumigatus, ATCC16424, lowest concentration inhibiting growth by at least 50%): 16 µg/mL (≈ 124 µM)
IC50 [4]: > 64 µg/mL
IC50 ([5]; Saccharomyces cerevisiae, ATCC26108, read-out: IC50): 0.125 µg/mL

C[C@@H]([C@H](N)C(=O)N[C@H](C(=O)O)[C@H]1O[C@@H](n2ccc(=O)[nH]c2=O)[C@H](O)[C@@H]1O)[C@H](O)c1ccc(O)cn1 [nikkomycin Z]
Cell Growth ([6]; 1 μg/disk): +
Cell Wall Regenertion ([6]; 1 μg/disk): −
Morphology ([6]; 1 μg/disk): protoplasts
Radial measurements of inhibited cell-wall regeneration from center of disk ([6]; 1 μg/disk): 30 mm^d

recombinant product: C-terminal truncated human chitinase analog (serine at position 370) expressed in E. coli from the Ara-chitinase plasmid at 25° C.
chitinase catalytic activity ([7]; E. coli transformants grown at 25° C., in words): exhibited chitinase catalytic activity

C[C@@H]1[C@H](O)[C@@H](C)/C=C/C=C/C=C/C=C/C=C/C=C/C=C/[C@H](O[C@@H]2O[C@H](C)[C@@H](O)[C@H](N)[C@@H]2O)C[C@@H]2O[C@](O)(C[C@@H](O)C[C@@H](O)[C@H](O)CC[C@@H](O)C[C@@H](O)CC(=O)O[C@H]1C)C[C@H](O)[C@H]2C(=O)O [amphotericin B]
Candida albicans Growth ([8]; 400 ng/disk): −
Cell Growth ([6]; 400 ng/disk): −
Cell Wall Regenertion ([6]; 400 ng/disk): +
Morphology ([6]; 400 ng/disk): cell debris
Radial measurement of inhibited growth from center of disk ([6]; 400 ng/disk): 10 mm^e
IC90 [1, 11]: 0.5 µg/mL (≈ 0.541 µM)
IC90 [2, 11]: >16 µg/mL
IC90 [3, 11]: 2 μg/ml (growth is 50% of control)
IC90 [4, 11]: 0.5 µg/mL
Aspergillus fumigatus Growth (Aspergillus fumigatus; 400 ng/disk): −

OC(Cn1cncn1)(Cn1cncn1)c1ccc(F)cc1F [fluconazole]
IC50 ([1]; Candida albicans, ATCC90028, read-out: IC50): 0.5 µg/mL (≈ 1.63 µM)
IC50 [2]: 16 µg/mL (≈ 52.2 µM)
IC50 [4]: 8 µg/mL
IC50 [5]: 4 µg/mL

A: rH-Chitinase: Recombinant human chitinase (full length, pRc/CMV-MO-13B, SEQ ID NO: 4) produced in COS cells according to Example 5A
chitotriosidase activity ([7]; purified protein produced in COS cells, 37° C., 15 minutes, pH 5.2): 90 nm/min per mg protein
Candida albicans Growth ([8]; 50 μg/disk): +
Candida albicans Growth [1, 12]: 2 (growth is 50% of control)
C. albicans-polyene resistant Growth [2, 12]: 2 (growth is 50% of control)
Aspergillus fumigatus Growth [3, 12]: 3 (growth is 75% of control)
fungal growth assessed by turbidity of cultures (Candida albicans): comparable rates, independent of chitinase concentration
fungal growth assessed by turbidity of cultures (Aspergillus fumigatis): comparable rates, independent of chitinase concentration
Neurospora crassa Growth [4, 12]: 4
Aspergillus fumigatus Growth (Aspergillus fumigatus; 50 μg/disk): +
Saccharomyes cerevisiae Growth [5, 12]: 2 (growth is 50% of control)
conclusion in the broth assay (in words) (test fungal organism): mildly anti-fungal
conclusion in the os-1 whole cell assay (in words) [9]: cell wall specific inhibitor
Cell Growth ([9]; 50 μg/disk, 25° C., 72 hours): +
Cell Wall Regenertion ([9]; 50 μg/disk, 25° C., 72 hours): −
Morphology ([9]; 50 μg/disk, 25° C., 72 hours): protoplasts
Radial measurements of inhibited cell-wall regeneration from center of disk ([9]; 50 μg/disk, 25° C., 72 hours): 10 mm^d
MRT (total body mean residence time) ([10]; 0.5 mg/kg): 45 min
MRT (total body mean residence time) ([10]; 5 mg/kg): 45.6 min
MRT (total body mean residence time) ([10]; 50 mg/kg): 159 min
